Experimental findings from patent US20260274875A1, “[…] COMPOUNDS, PREPARATION METHOD AND USE THEREOF” (HC SYNTHETIC PHARMACEUTICAL CO., LTD., priority 2022, published 2026) are described below.

Data set [1] can be described thus: Solubility in water, methanol and isopropanol. The format is physicochemical.
Protocol: The solubility in water, methanol, and isopropanol of the compounds of the present disclosure and the comparative compounds were measured separately.
Data set [2] concerns histamine-induced asthma in guinea pigs. In words: Antiasthmatic effect on histamine-induced asthma in guinea pigs. The format is in vivo, guinea pig. The conditions noted are these: 60 min after 1 mg/kg oral gavage; histamine hydrochloride spray; no asthma within 8 min counted as 8 min; X ± s, n = 5. Here is the method:
The time point at which the guinea pigs developed asthma was recorded. The time of convulsion and fall was taken as the latency period. Guinea pigs with a latency period exceeding 180 seconds were not selected. […] The guinea pigs were administered by oral gavage at a dose of 2 mL/kg·bw. Sixty minutes after the administration, the guinea pigs were placed in bell jars, and histamine hydrochloride solution was sprayed under the same conditions as in the previous selection. The latency period for the onset of asthma was recorded. […] The results were processed statistically.

The test system of data set [3] is isolated ileal smooth muscle of guinea pigs. As to the kind of experiment: Muscle tone of isolated ileal smooth muscle of guinea pigs (compound alone). Also noted: species or system guinea pig. To be noted: 5 minutes after adding drug, no histamine; X ± s, n = 8. Here is the method: (§1) The guinea pig was knocked unconscious with a wooden stick, and the abdomen was immediately dissected to separate the ileum about 15 cm in length. The contents of the intestinal segment were flushed with Tyrode's solution and placed in Tyrode's solution at a constant temperature of 37° C. for later use, and oxygen was supplied simultaneously. The experimental intestinal tract (1 cm in length) was cut and placed into 20 ml of Tyrode's solution at a constant temperature of 37° C. with a continuous oxygen supply. One end of the intestine was fixed on the ventilation hook and the other end was connected to the muscle tone transducer and led to the computer interface. The muscle tone value of the ileal smooth muscle was recorded with a BL system. The experiment was carried out after the intestinal segment contraction became stable. […] The operation was repeated 8 times. The antispasmodic percentage was calculated according to the following formula. [formula]

A short description of data set [4]: Accelerated stability test. The data set is classed as physicochemical. To be noted: 40° C.±2° C., RH 75%±5%. Here is the method:
The compound of the present disclosure was placed at a temperature of 40° C.±2° C. and a relative humidity of 75%±5% for 6 months, and samples were taken to determine for the descriptions, related substances, and contents.

The test system of data set [5] is histamine-contracted isolated ileal smooth muscle of guinea pigs. As to the kind of experiment: Muscle tone of isolated ileal smooth muscle of guinea pigs contracted with histamine. The conditions noted are these: 3 minutes after adding 0.05 mL compound to histamine-contracted ileum; x ± s, n = 8. Also noted: species or system guinea pig. Here is the method:
as §1, with “using” for “according to”, “equation.” for “formula. [formula]”

[6] abbreviates: organic solvent or mixture, solvent isopropanol, read-out: Solubility, Isopropanol.
The mark [7] stands for this setting: organic solvent or mixture, solvent methanol, read-out: Solubility, Methanol.
[8] abbreviates: water, solvent water, read-out: Solubility, Water.
Setting [9] is: methanol, organic solvent or mixture, solvent methanol, read-out: Solubility, Methanol.
[10] abbreviates: isopropanol, organic solvent or mixture, solvent isopropanol, read-out: Solubility, Isopropanol.

≈ marks a conversion by molar mass, not a printed value. Read-outs that look alike come from different tables or passages of the source.

In the case of `O=P(O)(O)OCCN1CCC(=C2c3ccc(Cl)cc3CCc3cccnc32)CC1` [Compound III-4], the figures for the solubility in data set [1] (setting [6]), in data set [1] (setting [7]) and in data set [1] (setting [8]) were 22 mg/mL (≈ 50.6 mM), 38 mg/mL (≈ 87.4 mM) and 28 mg/mL (≈ 64.4 mM), respectively.
For `O=P(O)(O)OCCN1CCC(=C2c3ccc(F)cc3CCc3cccnc32)CC1` [Compound III-5], in that order: 22 mg/mL (≈ 52.6 mM), 40 mg/mL (≈ 95.6 mM) and 28 mg/mL (≈ 66.9 mM).
For `O=P(O)(O)OCCN1CCC(=C2c3ccc(Br)cc3CCc3cccnc32)CC1` [Compound III-6], in that order: 22 mg/mL (≈ 45.9 mM), 40 mg/mL (≈ 83.5 mM) and 28 mg/mL (≈ 58.4 mM).
In the case of `O=P(O)(O)OCCCN1CCC(=C2c3ccc(Cl)cc3CCc3cccnc32)CC1` [Compound III-7], the solubility in data set [1] (setting [9]) worked out at 40 mg/mL (≈ 89.1 mM); in data set [1] (setting [8]), 30 mg/mL (≈ 66.8 mM).
On to `O=P(O)(O)OCCCN1CCC(=C2c3ccc(F)cc3CCc3cccnc32)CC1` [Compound III-8], for which the solubility came out at 22 mg/mL (≈ 50.9 mM) in data set [1] (setting [10]), 40 mg/mL (≈ 92.5 mM) in data set [1] (setting [9]) and 30 mg/mL (≈ 69.4 mM) in data set [1] (setting [8]). Also, the “Post-administration latency period” value in data set [2] turned out to be 370.94 ± 50.29 s.
As to `O=P(O)(O)OCCCN1CCC(=C2c3ccc(Br)cc3CCc3cccnc32)CC1` [Compound III-9], the results for the solubility in data set [1] (setting [10]), in data set [1] (setting [9]) and in data set [1] (setting [8]) were 22 mg/mL (≈ 44.6 mM), 40 mg/mL (≈ 81.1 mM) and 30 mg/mL (≈ 60.8 mM), respectively.
For the molecule `O=P(O)(O)OCCCCN1CCC(=C2c3ccc(Cl)cc3CCc3cccnc32)CC1` [Compound III-10], the solubility in data set [1] (setting [9]) was 43 mg/mL (≈ 92.9 mM); in data set [1] (setting [8]), 30 mg/mL (≈ 64.8 mM). Also, the “Antispasmodic percentage (%)” value in data set [3] was determined as 35.75 ± 19.99%.
Regarding `O=P(O)(O)OCCCCN1CCC(=C2c3ccc(F)cc3CCc3cccnc32)CC1` [Compound III-11], the solubility in data set [1] (setting [10]) came out at 25 mg/mL (≈ 56 mM); in data set [1] (setting [9]) it was 43 mg/mL (≈ 96.3 mM); in data set [1] (setting [8]) it was 30 mg/mL (≈ 67.2 mM). Moreover, in data set [3], the “Antispasmodic percentage (%)” value worked out at 31.58 ± 18.30%.
Regarding `O=P(O)(O)OCCCCN1CCC(=C2c3ccc(Br)cc3CCc3cccnc32)CC1` [Compound III-12], the solubility in data set [1] (setting [10]) came to 25 mg/mL (≈ 49.3 mM); in data set [1] (setting [9]), 43 mg/mL (≈ 84.8 mM); in data set [1] (setting [8]) it was 32 mg/mL (≈ 63.1 mM).
Consider `O=P(O)(O)OCCCCCN1CCC(=C2c3ccc(Cl)cc3CCc3cccnc32)CC1` [Compound III-13], for which the solubility in data set [1] (setting [9]) came out at 44 mg/mL (≈ 92.3 mM); in data set [1] (setting [8]), 32 mg/mL (≈ 67.1 mM).
With `O=P(O)(O)OCCCCCN1CCC(=C2c3ccc(F)cc3CCc3cccnc32)CC1` [Compound III-14], the results for the solubility in data set [1] (setting [10]), in data set [1] (setting [9]) and in data set [1] (setting [8]) were 25 mg/mL (≈ 54.3 mM), 44 mg/mL (≈ 95.6 mM) and 32 mg/mL (≈ 69.5 mM), respectively. In addition, the Content in data set [4] (Month 2) and in data set [4] (Month 3) was 99.5% throughout.
Turning to `O=P(O)(O)OCCCCCN1CCC(=C2c3ccc(Br)cc3CCc3cccnc32)CC1` [Compound III-15], the solubility in data set [1] (setting [10]) was 25 mg/mL (≈ 47.9 mM); in data set [1] (setting [9]), 44 mg/mL (≈ 84.4 mM); in data set [1] (setting [8]), 32 mg/mL (≈ 61.4 mM).
For `O=P(O)(O)OCOCCCN1CCC(=C2c3ccc(Cl)cc3CCc3cccnc32)CC1` [Compound III-17], in that order: 25 mg/mL (≈ 52.2 mM), 42 mg/mL (≈ 87.7 mM) and 30 mg/mL (≈ 62.6 mM).
Take `O=P(O)(O)OCOCCCCN1CCC(=C2c3ccc(Cl)cc3CCc3cccnc32)CC1` [Compound III-18]: the solubility amounted to 25 mg/mL (≈ 50.7 mM) in data set [1] (setting [10]), 42 mg/mL (≈ 85.2 mM) in data set [1] (setting [9]) and 30 mg/mL (≈ 60.9 mM) in data set [1] (setting [8]). Besides, in data set [4] (Month 3), the Content worked out at 99.5%.
In the case of `O=P(O)(O)OCOCCCCCN1CCC(=C2c3ccc(Cl)cc3CCc3cccnc32)CC1` [Compound III-19], the solubility in data set [1] (setting [10]) was determined as 25 mg/mL (≈ 49.3 mM); in data set [1] (setting [9]), 42 mg/mL (≈ 82.8 mM); in data set [1] (setting [8]), 30 mg/mL (≈ 59.2 mM).
As to `O=P([O-])([O-])OCN1CCC(=C2c3ccc(Cl)cc3CCc3cccnc32)CC1.[Na+].[Na+]` [Compound IV-1], the solubility is 44 mg/mL in data set [1] (setting [9]) and 432 mg/mL in data set [1] (setting [8]).
Turning to `O=P([O-])([O-])OCCN1CCC(=C2c3ccc(Cl)cc3CCc3cccnc32)CC1.[K+].[K+]` [Compound IV-2], the solubility in data set [1] (setting [10]) is 1 mg/mL; in data set [1] (setting [9]), 23 mg/mL; in data set [1] (setting [8]) it was 389 mg/mL. Besides, the values for the Content in data set [4] (Month 1) and in data set [4] (Month 3) were 99.6% and 99.5%, respectively.
As to `O=P([O-])([O-])OCCCCN1CCC(=C2c3ccc(Cl)cc3CCc3cccnc32)CC1.[Na+].[Na+]` [Compound IV-4], the solubility turned out to be 1 mg/mL in data set [1] (setting [10]) and 20 mg/mL in data set [1] (setting [9]). The Content in data set [4] (Month 1), in data set [4] (Month 2) and in data set [4] (Month 3) was 99.6% in each case.
`O=P(O)(O)OCCCCCN1CCC(=C2c3ccc(Cl)cc3CCc3cccnc32)CC1` [Compound IV-7] yielded a Content in data set [4] (Month 3) of 99.5%.
The molecule `O=P(O)(O)OCOCCN1CCC(=C2c3ccc(Cl)cc3CCc3cccnc32)CC1` [Compound IV-8] showed a Content in data set [4] (Month 3) of 99.5%. In data set [5], the “Smooth muscle tone (g) After administration” value is 1.19 ± 0.28 g.
Consider `O=P([O-])([O-])OCOCCCN1CCC(=C2c3ccc(Cl)cc3CCc3cccnc32)CC1.[Na+].[Na+]` [Compound IV-9], for which the figures for the solubility in data set [1] (setting [10]), in data set [1] (setting [9]) and in data set [1] (setting [8]) were 2 mg/mL, 27 mg/mL and 411 mg/mL, respectively. Moreover, the Content in data set [4] (Month 1), in data set [4] (Month 2) and in data set [4] (Month 3) was 99.7% each time.
Consider `O=P([O-])([O-])OCOCCCCN1CCC(=C2c3ccc(Cl)cc3CCc3cccnc32)CC1.[Na+].[Na+]` [Compound IV-10], for which the solubility is 2 mg/mL in data set [1] (setting [10]), 27 mg/mL in data set [1] (setting [9]) and 401 mg/mL in data set [1] (setting [8]).
Consider `O=P([O-])([O-])OCOCCCCCN1CCC(=C2c3ccc(Cl)cc3CCc3cccnc32)CC1.[Na+].[Na+]` [Compound IV-11], for which the solubility in data set [1] (setting [10]) was 2 mg/mL; in data set [1] (setting [9]) it was 27 mg/mL; in data set [1] (setting [8]), 390 mg/mL. Moreover, the “Smooth muscle tone (g) After administration” value in data set [5] worked out at 1.18 ± 0.28 g.
With `OCCCCCCN1CCC(=C2c3ccc(Cl)cc3CCc3cccnc32)CC1` [Hydroxyhexyl desloratadine, Hydroxyhexyl Desloratadine], in data set [5], the “Antispasmodic percentage (%)” value amounted to 58.30 ± 14.11%.
As to `OCCCCCN1CCC(=C2c3ccc(Cl)cc3CCc3cccnc32)CC1` [Hydroxypentyl desloratadine, Hydroxypentyl Desloratadine], the “Antispasmodic percentage (%)” value in data set [5] came to 58.53 ± 12.34%.
Still for that read-out and setting: with `OCCCN1CCC(=C2c3ccc(Cl)cc3CCc3cccnc32)CC1` [Hydroxypropyl desloratadine, Hydroxypropyl Desloratadine] the figure was 58.77 ± 13.82%.

As a reminder, the solubility is the concentration that dissolves in the medium under given conditions.
